In patent US8268772B2, “Depot preparations” (Symrise AG, priority 2001, dated 2012):

Assay: Storage stability in soap formulation
Assay type: physicochemical
Settings: stored in the dark about one month at room temperature
Excerpt: (§1) (Amount after storage/Amount before storage)*100%=Storage stability [%]
The separate samples are then divided into portions.
The soap formulations A to F were stored in the dark for about one-month at room temperature.

Row | Storage stability [%] | Compound
1 | 27 | CC(C)(C)c1ccc(CCC=O)cc1 [Bourgeonal, 4-tert-Butyldihydrocinnamaldehyde, reference compound]
2 | 93 | CCCC(=O)OC(CCc1ccc(C(C)(C)C)cc1)OC(=O)CCC [DP Example 6, 3-(4-tert-Butylphenyl)-1-(butyryloxy)propyl butyrate]
3 | 32 | CCCCCCCCCC=O [Aldehyde C10, Decanal, reference compound]
4 | 93 | CCCC(=O)OC(OC(=O)CCC)c1ccccc1 [DP Example 5, (Butyryloxy)(phenyl)methyl butyrate]
5 | 95 | CCCCCCCCCC(OC(=O)CCCCCC)OC(=O)CCCCCC [DP Example 7, 1-(Heptanoyloxy)decyl heptanoate]

Row | Compound | Storage stability [%]
6 | O=Cc1ccccc1 [Benzaldehyde, reference compound] | 45

Assay: Storage stability in hair colorant developer mass
Assay type: physicochemical
Settings: 1% in developer mass, room temperature, 0 days
Description: as §1
The formulation of the developer mass typically comprises water, hydrogen peroxide, acids, such as, for example, phosphoric acid, citric acid etc., thickeners, emulsifiers, preservatives, solvents and further auxiliaries. 1% of DP Example 5 is added to the formulation of the developer mass.
The developer formulation, which comprises 1% of DP Example 5, is stored for one and a half months at room temperature.

Row | Stability [%] 0 days [%] | Compound
7 | 100 | CCCC(=O)OC(OC(=O)CCC)c1ccccc1 [DP Example 5, (Butyryloxy)(phenyl)methyl butyrate]

Same assay, conditions: 1% in developer mass, room temperature, 13 days

Row | Stability [%] 13 days [%] | Compound
8 | 100 | CCCC(=O)OC(OC(=O)CCC)c1ccccc1 [DP Example 5, (Butyryloxy)(phenyl)methyl butyrate]

Same assay, conditions: 1% in developer mass, room temperature, 28 days

Row | Stability [%] 28 days [%] | Compound
9 | 98 | CCCC(=O)OC(OC(=O)CCC)c1ccccc1 [DP Example 5, (Butyryloxy)(phenyl)methyl butyrate]

Same assay, conditions: 1% in developer mass, room temperature, 42 days

Row | Stability [%] 42 days [%] | Compound
10 | 100 | CCCC(=O)OC(OC(=O)CCC)c1ccccc1 [DP Example 5, (Butyryloxy)(phenyl)methyl butyrate]

Same assay, conditions: developer mass, one and half months at room temperature

Row | color, odor and analytical stability | Compound
11 | color, odor and analytically stable | CCCC(=O)OC(OC(=O)CCC)c1ccccc1 [DP Example 5, (Butyryloxy)(phenyl)methyl butyrate]

Assay: Release rate during hair coloring (GC content after mixing developer mass with ammoniacal dye solution)
Assay type: physicochemical
Settings: 1 min after mixing developer mass (0.3% each DP) 1:1 with ammoniacal dye solution
Description: To determine the hydrolysis rate the three depot preparations DP Example 8, DP Example 9 and DP Example 10 were added to the developer mass in a concentration of in each case 0.3%. The ammoniacal dye solution, which consists of 2 to 16% ammonia and/or substitutes such as, for example, alkanolamines, in particular monoethanolamine, water, thickeners, emulsifier, bodying agents, reactive dyes, solvents, flexing agents, stabilizers and preservatives, is then added to the developer mass in the ratio 1:1. Samples are then taken from the hair dye solution at defined time intervals, neutralized and extracted with solvent, and the content of depot preparation and released aldehyde is determined by means of gas chromatography using an internal and external standard.

Row | Relative GC content [%] | Compound
12 | 2.1 | CC1=CC(C)C(C=O)CC1 (stereo not shown) [Vertocitral, reference compound]
13 | 28.9 | CC(=O)OC(OC(C)=O)C1CCC(C)=CC1C (stereo not shown) [DP Example 9, (Acetyloxy)(2,4-dimethyl-3-cyclohexen-1-yl)methyl acetate]
14 | 22.9 | CCCCCCC(OC(C)=O)OC(C)=O [DP Example 8, 1-(Acetyloxy)heptyl acetate]
15 | 48.2 | CCCCCCCCCC(C)C(OC(C)=O)OC(C)=O (stereo not shown) [DP Example 10, 1-(Acetyloxy)-2-methylundecyl acetate]
16 | 1.4 | CCCCCCC=O [Aldehyde C7, heptanal, reference compound]
17 | 2.8 | CCCCCCCCCC(C)C=O (stereo not shown) [2-Methylundecanal, reference compound]

Same assay, conditions: 5 min after mixing developer mass (0.3% each DP) 1:1 with ammoniacal dye solution

Row | Relative GC content [%] | Compound
18 | 33.6 | CC1=CC(C)C(C=O)CC1 (stereo not shown) [Vertocitral, reference compound]
19 | 2.5 | CC(=O)OC(OC(C)=O)C1CCC(C)=CC1C (stereo not shown) [DP Example 9, (Acetyloxy)(2,4-dimethyl-3-cyclohexen-1-yl)methyl acetate]
20 | 0.0 | CCCCCCC(OC(C)=O)OC(C)=O [DP Example 8, 1-(Acetyloxy)heptyl acetate]
21 | 5.1 | CCCCCCCCCC(C)C(OC(C)=O)OC(C)=O (stereo not shown) [DP Example 10, 1-(Acetyloxy)-2-methylundecyl acetate]
22 | 17.1 | CCCCCCC=O [Aldehyde C7, heptanal, reference compound]
23 | 32.8 | CCCCCCCCCC(C)C=O (stereo not shown) [2-Methylundecanal, reference compound]

Same assay, conditions: 10 min after mixing developer mass (0.3% each DP) 1:1 with ammoniacal dye solution

Row | Relative GC content [%] | Compound
24 | 33.6 | CC1=CC(C)C(C=O)CC1 (stereo not shown) [Vertocitral, reference compound]
25 | 0.5 | CC(=O)OC(OC(C)=O)C1CCC(C)=CC1C (stereo not shown) [DP Example 9, (Acetyloxy)(2,4-dimethyl-3-cyclohexen-1-yl)methyl acetate]
26 | 0.0 | CCCCCCC(OC(C)=O)OC(C)=O [DP Example 8, 1-(Acetyloxy)heptyl acetate]
27 | 2.0 | CCCCCCCCCC(C)C(OC(C)=O)OC(C)=O (stereo not shown) [DP Example 10, 1-(Acetyloxy)-2-methylundecyl acetate]
28 | 19.3 | CCCCCCC=O [Aldehyde C7, heptanal, reference compound]
29 | 47.1 | CCCCCCCCCC(C)C=O (stereo not shown) [2-Methylundecanal, reference compound]

Same assay, conditions: 20 min after mixing developer mass (0.3% each DP) 1:1 with ammoniacal dye solution

Row | Relative GC content [%] | Compound
30 | 19.3 | CC1=CC(C)C(C=O)CC1 (stereo not shown) [Vertocitral, reference compound]
31 | 0.0 | CC(=O)OC(OC(C)=O)C1CCC(C)=CC1C (stereo not shown) [DP Example 9, (Acetyloxy)(2,4-dimethyl-3-cyclohexen-1-yl)methyl acetate]
32 | 0.0 | CCCCCCC(OC(C)=O)OC(C)=O [DP Example 8, 1-(Acetyloxy)heptyl acetate]
33 | 0.0 | CCCCCCCCCC(C)C(OC(C)=O)OC(C)=O (stereo not shown) [DP Example 10, 1-(Acetyloxy)-2-methylundecyl acetate]
34 | 12.2 | CCCCCCC=O [Aldehyde C7, heptanal, reference compound]
35 | 20.7 | CCCCCCCCCC(C)C=O (stereo not shown) [2-Methylundecanal, reference compound]

Same assay, conditions: 30 min after mixing developer mass (0.3% each DP) 1:1 with ammoniacal dye solution

Row | Relative GC content [%] | Compound
36 | 15.7 | CC1=CC(C)C(C=O)CC1 (stereo not shown) [Vertocitral, reference compound]
37 | 0.0 | CC(=O)OC(OC(C)=O)C1CCC(C)=CC1C (stereo not shown) [DP Example 9, (Acetyloxy)(2,4-dimethyl-3-cyclohexen-1-yl)methyl acetate]
38 | 0.0 | CCCCCCC(OC(C)=O)OC(C)=O [DP Example 8, 1-(Acetyloxy)heptyl acetate]
39 | 0.0 | CCCCCCCCCC(C)C(OC(C)=O)OC(C)=O (stereo not shown) [DP Example 10, 1-(Acetyloxy)-2-methylundecyl acetate]
40 | 11.4 | CCCCCCC=O [Aldehyde C7, heptanal, reference compound]
41 | 16.4 | CCCCCCCCCC(C)C=O (stereo not shown) [2-Methylundecanal, reference compound]

Assay: Storage stability in powder laundry detergent
Settings: after one month storage
Description: The storage stability of a fragrance or of a depot preparation is defined by the percentage of substance still present after storage. (Amount after storage/Amount before storage)*100%=Storage stability [%]
For the determination and for the comparison of the storage stability the depot preparation (DP) consisting of one or more acylals and the corresponding aldehydes (AL) are incorporated into separate samples. (SDP and SAL) of the same formulation of a consumer product, such as, for example, laundry detergent, shampoo or soap. The separate samples are then divided into portions. One portion of the sample SDP and SAL is subjected immediately to a suitable extraction and analytical measurement in order to determine the amount of depot preparation or aldehyde prior to storage. In the analytical investigation by, for example, gas chromatography, a suitable standard is used for quantification. The second portion is subjected to storage at elevated temperature for a defined period and then extracted and quantified using the same methods.
The laundry detergents A and B were used for washing or examined analytically both directly and after storage for four weeks.

Row | Compound | Storage stability [%]
42 | CCCC(=O)OC(OC(=O)CCC)C1CC=C(CCC=C(C)C)CC1 (stereo not shown) [DP Example 3, (Butyryloxy) [4-(4-methyl-3-pentenyl)-3-cyclohexen-1-yl]methyl butyrate] | 93
43 | CC(C)=CCCC1=CCC(C=O)CC1 (stereo not shown) [Vertomugal, 1-Formyl-4-(4-methyl-3-pentenyl)-3-cyclohexene, reference compound] | 34
